In ChEMBL document CHEMBL1140805, “1-Toluene-sulfonyl-3-[(3'-hydroxy-5'-substituted)-gamma-butyrolactone]-indoles: synthesis, COX-2 inhibition and anti-cancer activities” (Bioorg Med Chem Lett, 2008):

How the values were obtained:
[1] = Partition coefficient, log P of the compound; type: physicochemical; settings: octanol/water
[2] = organism: Ovis aries; test: Selectivity index, Ratio of IC50 for ovine COX2 to IC50 for ovine COX1
[3] = target: T1, Prostaglandin G/H synthase 1 (Ovis aries, UniProt P05979)
T1 sequence (P05979 whole entry): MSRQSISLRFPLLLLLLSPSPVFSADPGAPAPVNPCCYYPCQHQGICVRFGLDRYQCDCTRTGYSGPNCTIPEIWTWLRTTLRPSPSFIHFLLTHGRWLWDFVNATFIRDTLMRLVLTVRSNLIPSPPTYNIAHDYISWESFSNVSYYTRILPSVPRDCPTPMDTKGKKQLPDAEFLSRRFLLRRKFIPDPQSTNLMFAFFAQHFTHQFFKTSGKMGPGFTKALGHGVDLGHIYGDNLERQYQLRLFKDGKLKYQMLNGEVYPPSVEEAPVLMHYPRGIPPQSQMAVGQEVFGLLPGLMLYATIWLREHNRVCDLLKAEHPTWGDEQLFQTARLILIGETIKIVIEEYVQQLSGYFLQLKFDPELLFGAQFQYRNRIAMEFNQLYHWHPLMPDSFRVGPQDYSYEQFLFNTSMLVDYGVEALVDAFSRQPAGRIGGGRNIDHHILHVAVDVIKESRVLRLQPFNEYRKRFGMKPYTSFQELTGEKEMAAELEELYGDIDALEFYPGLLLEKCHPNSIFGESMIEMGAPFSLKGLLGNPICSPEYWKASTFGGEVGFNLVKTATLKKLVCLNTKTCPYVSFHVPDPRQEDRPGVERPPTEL

[4] = target: T2, Prostaglandin G/H synthase 1 (Ovis aries) (UniProt P05979); test: Inhibition of ovine COX1 at 10 uM
T2 sequence (whole entry): T1 sequence (P05979 whole entry)

CCSC[C@H]1C[C@](O)(c2cn(S(=O)(=O)c3ccc(C)cc3)c3ccccc23)C(=O)O1
logP [1]: 2.38 | Ratio IC50 [2]: < 1000 | IC50 [3]: > 10 µM | inhibition [4]: 35%

Cc1ccc(S(=O)(=O)n2cc([C@@]3(O)C[C@H](CI)OC3=O)c3ccccc32)cc1
logP [1]: 2.49 | IC50 [3]: > 10 µM | inhibition [4]: 40%

CS(=O)(=O)c1ccc(C2=C(c3ccccc3)C(=O)OC2)cc1
inhibition [4]: 75%

Cc1ccc(S(=O)(=O)n2cc([C@@]3(O)C[C@H](CSC#N)OC3=O)c3ccccc32)cc1
logP [1]: 1.78 | Ratio IC50 [2]: > 1000 | IC50 [3]: < 10 µM | inhibition [4]: 65%
